Experiments:
Assay type in all cases: cell-based
[1] = test system: p70S6K; assay: Luminex multiplex assay, p70S6K phosphorylation in cell lysates; conditions: PC3 cell line; read-out: Luminex p70S6K
Text: (§1) The multiplex Luminex assay format differs from conventional enzyme-linked immunosorbent assay (ELISA) in that the multiplex capture antibody is attached to a polystyrene bead whereas the ELISA capture antibody is attached to the microplate well. The use of the suspension bead-based technology enables the multiplexing capabilities of the Luminex assays. The xMAP® technology uses 5.6 micron polystyrene microspheres, which are internally dyed with red and infrared fluorophores of differing intensities. Each bead is given a unique number, or bead region, allowing differentiation of one bead from another. Beads covalently bound to different specific antibodies can be mixed in the same assay, utilizing a 96-well microplate format. At the completion of the sandwich immunoassay, beads can be read, using the Luminex 100™ or Luminex 200 detection system, in single-file by dual lasers for classification and quantification of each analyte. The Akt-Pathway Phospho 5-plex kit used was custom made and includes the ability to simultaneously measure p-GSK3β (S9), p-PRAS40(T246), and p-4E-BP1(T46).
(§2) Cells were plated at the required density. The cells were treated with either Compound 1 or rapamycin over a range of concentrations for 1 hour in 5% CO2 at 37° C. Compound 1 and rapamycin were used at the same concentrations as for the proliferation assay. As for the cell proliferation assay, a reference standard was included in the assay for PC3 cells and the coefficient of variation for assay of p-GSK3β(S9) was 37.8% (n=30), p-PRAS40(T246) was 27.8% (n=30) and for p4E-BP1(T46) was 13.5% (n=4). For three cell lines (HCT-116, MDA-MB-231 and HT29) in the assay for phosphorylation of GSK3β, PRAS40 and 4E-BP1, IGF-I stimulation (500 ng/mL, recombinant human IGF-I) for the last 10 min of incubation was used. The media was aspirated from the wells and the plate was placed on ice. Then 35 μL of Lysis Buffer was added to each well and incubated on ice for at least 30 minutes. During the incubation, the standard curve for each phosphoprotein was prepared. The standards provided were reconstituted and serial dilutions were prepared according to the manufacturer's instructions. At the end of the cell lysis step, […] of the lysate was transferred to a V-bottom plate and spun at 4° C. at 2000 rpm for 5 minutes. Both the 1× Luminex bead and 1× detector antibody solutions were prepared during this time. The 1× bead solution was vortexed and 25 μL was added into each well of a black round bottom plate. Then 50 μL of the 1× detector antibody was added to each well. Fifty microliters (50 μL) of the prepared standards were added to the designated wells. Then 25 μL of the assay diluent was added to each well designated for the compound-treated cell lysates. At the end of the spin, 25 μL of cell lysate was added to the corresponding wells of the black assay plate. The assay plate was covered with the white plate lid and incubated for 3 hours at room temperature on an orbital shaker.
(§3) Approximately 10-15 minutes prior to the end of the first incubation, the secondary antibody solution was prepared according to the vendor's protocol. Goat anti-rabbit R-phycoerythrin red fluorescent protein (RPE) supplied as a 10× concentrate was diluted to generate a 1× goat anti-rabbit RPE stock. The 96-well filter plate was pre-wet with 200 μL of 1× Working wash solution. At the end of the 3 hour incubation, a multichannel pipette was used to transfer the entire contents from each assay well into the wells of the filter plate. The liquid from the wells was removed by aspiration with the vacuum manifold. Then 200 μL of 1× Working wash solution was added into each well. The wash solution was aspirated using the vacuum manifold after 15-30 seconds. This wash step was repeated one time. The bottom of the plate was blotted on clean paper towels to remove residual liquid. […]

[2] = test system: Phospho-GSK3β(S9); assay: Luminex multiplex assay, Phospho-GSK3β(S9); conditions: PC3 cell line; read-out: Luminex GSK-3β
Text: (§4) Determination of Phospho-GSK3β(S9), Phospho-PRAS40(T246) and Phospho-4E-BP1(T46) and the Effect of Compound 1 or Rapamycin.
as §1, §2, §3

[3] = test system: Phospho-PRAS40(T246); assay: Luminex multiplex assay, Phospho-PRAS40(T246); conditions: PC3 cell line; read-out: Luminex PRAS40
Text: as §4, §1, §2, §3

| SMILES | IC50 [1] [nM] | IC50 [2] [nM] | IC50 [3] [nM] |
| --- | --- | --- | --- |
| N#Cc1cccc(-c2cnc3c(n2)N(CCC2CCOCC2)CC(=O)N3)c1 [C-83] | > 1500 | > 1500 | > 1500 |
| NC(=O)c1cccc(-c2cnc3c(n2)N(CCC2CCOCC2)CC(=O)N3)c1 [C-84] | > 1500 | > 1500 | > 1500 |
| COCCN1CC(=O)Nc2ncc(-c3cnc(C(N)=O)cc3C)nc21 [C-86] | 310 | 939 | > 1500 |
| O=C1CN(CCC2CCOCC2)c2nc(-c3cccc(-c4ncn[nH]4)c3)cnc2N1 [C-87] | 910 | > 1500 | > 1500 |
| NC(=O)c1cccc(-c2cnc3c(n2)N(CCC2CCOCC2)C(=O)CN3)c1 [C-90] | 1330 | > 1500 | > 1500 |
| O=C1CNc2ncc(-c3cn[nH]c3)nc2N1CCC1CCOCC1 [C-94] | 209 | > 1500 | > 1500 |
| CCN1C(=O)CNc2ncc(-c3ccc4cn[nH]c4c3)nc21 [C-97] | > 1500 | > 1500 | > 1500 |
| COC1CCC(N2C(=O)CNc3ncc(-c4ccc(C(C)(C)O)[n+]([O-])c4)nc32)CC1 (stereo not drawn) [C-98] | 825 | > 1500 | > 1500 |
| O=C1CNc2ncc(-c3ccncc3)nc2N1CCC1CCOCC1 [C-101] | 469 | > 1500 | > 1500 |
| CCN1C(=O)CNc2ncc(-c3cccc4[nH]ncc34)nc21 [C-102] | > 1500 | > 1500 | > 1500 |
| COc1ccc(-c2cnc3c(n2)N(CCC2CCOCC2)C(=O)CN3)cn1 [C-105] | 252 | > 1500 | > 1500 |
| O=C1CNc2ncc(-c3cncnc3)nc2N1CCC1CCOCC1 [C-106] | > 1500 | > 1500 | > 1500 |
| COCCN1C(=O)CNc2ncc(-c3cccc4[nH]ncc34)nc21 [C-109] | 367 | > 1500 | > 1500 |

Now those with a lower IC50 [1], led by results:

| IC50 [1] [nM] | IC50 [2] [nM] | IC50 [3] [nM] | SMILES |
| --- | --- | --- | --- |
| 27 | 30 | 139 | CC(C)(O)c1ccc(-c2cnc3c(n2)N(Cc2cccc(C#N)c2)C(=O)CN3)cn1 [C-85] |
| 3 | 8 | 23 | COCCN1CC(=O)Nc2ncc(-c3cnc(-c4ncn[nH]4)cc3C)nc21 [C-88] |
| 102 | 860 | 1010 | COC1CCC(CN2C(=O)CNc3ncc(-c4cnc(C(N)=O)cc4C)nc32)CC1 (stereo not drawn) [C-89] |
| 2 | 4 | 7 | COC1CCC(CN2C(=O)CNc3ncc(-c4cnc(-c5nc[nH]n5)cc4C)nc32)CC1 (stereo not drawn) [C-91] |
| 1 | 8 | 9 | Cc1nc(-c2nnc[nH]2)ccc1-c1cnc2c(n1)N(Cc1cccc(C#N)c1)C(=O)CN2 [C-92] |
| 29 | 234 | 308 | COC1CCC(CN2C(=O)CNc3ncc(-c4cnc(C(N)=O)cc4C)nc32)CC1 (stereo not drawn) [C-95] |
| 129 | 721 | 919 | Cc1cc(C(N)=O)ncc1-c1cnc2c(n1)N(CC1CCOCC1)C(=O)CN2 [C-96] |
| 11 | 348 | 274 | Cc1nc(-c2nnc[nH]2)ccc1-c1cnc2c(n1)N(C)C(=O)CN2 [C-99] |
| 15 | 608 | 564 | Nc1ccc(-c2cnc3c(n2)N(CCC2CCOCC2)C(=O)CN3)cn1 [C-100] |
| < 1.5 | 168 | 106 | COCCN1C(=O)CNc2ncc(-c3cnc4[nH]ccc4c3)nc21 [C-104] |
| 143 | > 1500 | > 1500 | COCCN1C(=O)CNc2ncc(-c3ccc4cn[nH]c4c3)nc21 [C-107] |
| 5 | 37 | 31 | COC1CCC(N2CC(=O)Nc3ncc(-c4ccc(-c5nc[nH]n5)c(F)c4C)nc32)CC1 (stereo not drawn) [C-108] |
